Non-standard residues stand in square brackets, D forms with d. Residues, ends and D or L forms follow the SMILES beside them. *: point of attachment. Biotin = O=C1N[C@H]2[C@H](CS[C@H]2CCCCC(=O)*)N1
Tests used:
[1] = NAO fluorescence with POPC liposomes; type: binding
Procedure: The resulting multilamellar vesicles were vortexed lightly and sized into small unilamellar vesicles by heated bath sonication for 25 min. All liposomes were cooled to ambient temperature before use.
Interaction of biotin-HDAP2 Peptide with Phospholipids: The ability of biotin-HDAP2 to displace nonyl acridine orange (NAO), a fluoroprobe known to selectively bind CL was determined. Interaction of biotin-HDAP2 with phospholipids was examined by measuring changes in the fluorescence spectra of 3 μM NAO (Molecular Devices, Sunnyvale, CA)) with excitation at 480 nm. CL and POPC in liposomes were use at 30 μM. Dose response curves were done with 30 μM CL, biotin-HDAP2 (0, 2.5, 5, 10, 20, and 30 μM), and 3 μM of NAO (ex/em at 480 nm/520 nm). All experiments were done in 10 mM Hepes (pH 7.4) to optimize electrostatic interactions of peptides with phospholipids.

ARPE-19 cells = experiment: Restoration of mitochondrial membrane potential after 3 days of serum starvation (TMRM); type: cell-based; details: 2 hours incubation after 3 days of serum starvation
From the text: Serum starvation for 3 days reduced mitochondrial membrane potential in serum-free controls (SFC), compared to regular cells grown on serum (FBS). […] Error bars represent SEM (n=5) ***P<0.001.

SMILES: N=C(N)NCCC[C@@H](NC(=O)[C@H](Cc1ccccc1)NC(=O)[C@H](Cc1ccccc1)NC(=O)[C@@H](CCCNC(=N)N)NC(=O)CCCC[C@@H]1SC[C@@H]2NC(=O)N[C@@H]21)C(N)=O [biotin-HDAP2, Biotin-dArg-Phe-Phe-dArg-NH2] (Biotin-[dR]FF[dR]-NH2)
- effect on interaction between NAO and POPC liposomes [1]: did not interfere with the interaction between NAO and the POPC liposomes
- restoration of mitochondrial membrane potential (ARPE-19 cells): restored mitochondrial membrane potential within 2 hours
